Source: article PMC11048033, “Dual Anti-Inflammatory and Anticancer Activity of Novel 1,5-Diaryl Pyrazole Derivatives: Molecular Modeling, Synthesis, In Vitro Activity, and Dynamics Study” (Biomedicines, 2024)

Columns and labels:
[1] = biological target: T1, human COX-1 (Homo sapiens, UniProt P23219); experiment: In vitro COX-1 enzymatic assay (Cayman COX (human) Inhibitor Screening Assay Kit); format: biochemical; conditions: for COX-1 IC50: human COX-1
T1 construct: purchased Cayman chemicals 701230
Method: The ability of the compounds to inhibit COX -2 (IC50 values, µM) was determined by using a “COX (human) Inhibitor Screening Assay Kit” procured from Cayman Chemicals (catalog number 701230). With a slight modification in the method as defined in the reference, the COX-2 inhibition assay was performed. Using the percent conversion of arachidonic acid (AA) to PGH2, the enzyme activity was calculated. By enzyme immunoassay PGF2α, which is produced from PGH2 by reduction with stannous chloride, is calculated. The test compounds’ stock solutions are prepared by dissolving in a minimum amount of DMSO. Human COX-2 (10 µL) in the presence of 10 µL of heme was suspended in 0.1M Tris-HCl buffer (pH 8.0) which contains 2 mM phenol and 5 mM EDTA. This was added to various concentrations of test compounds and, on incubating the solutions at 37 °C for 5 min, 10 µL of AA solution were added. Later, the COX reaction was stopped by adding 1M HCl (50 µL) after 2 min. The intensity of the yellow color which is produced as the product of the enzymatic reaction is determined spectrophotometrically. The percent inhibition was calculated by comparing the compound treated to different control incubations. Celecoxib is utilized as the standard for the assay. The determinations are done in triplicate and the IC50 (µM) was determined using the concentration–inhibition response curve.
During the initiation of the inflammatory process, the COX enzyme plays a vital role in the progression of inflammatory response. The inflammatory mediators that arise due to the action of COX lead to the chemoattraction of neutrophils, macrophages, eosinophils, etc. Due to the involvement of COX in inflammatory diseases, inhibitors of this enzyme can help in designing effective therapeutic agents. […] This was carried out with the help of a COX (human) inhibitor screening assay kit (Item no. 701230) from Cayman chemicals. […] A test substance concentration was considered to be inhibitive when it inhibited human COX-1 or COX-2 by 50%. The compound’s selectivity was measured by its selectivity index values, derived as IC50 (COX-1)/IC50 (COX-2).

[2] = system: A549 (human lung adenocarcinoma) cell line; experiment: MTT anticancer assay, A549; format: cell-based; conditions: for IC50 against A549: MTT
Method: The in vitro anticancer activity is determined by counting the viable cells that are stained with a vital dye. The MTT technique is an accurate measure of the activity of live cells using mitochondrial dehydrogenases. The target tumor cells A549 (human lung adenocarcinoma) and HEPG2 (human liver) cell lines are procured from the “National Centre for Cell Science” (NCCS, Pune). The sources of reagents like Trypsin, DMEM, Pen strip, and FBS are procured from Himedia. […] The culture medium was prepared, and the MTT assay was performed as per the general procedure described by Mosmann T. et al., [30] and the % viability of the cells was determined.
The target compounds tested for in vitro COX-2 were further checked for in vitro anti-cancer activity against A549 (lung cancer) and HepG2 (liver cancer) cell lines using MTT growth inhibition assay. The compounds were tested for cytotoxicity against both the cell lines at concentrations of 6.25, 12.5, 25, 50, and 100 µg/mL. […] Using the graph where % cell viability is plotted versus concentration, the IC50 values are determined with the help of the dose–response regression equation.

[3] = biological target: BSA (bovine albumin serum) (Bos taurus, UniProt P02769); experiment: Protein (albumin) denaturation assay; conditions: maximum inhibition; compounds tested at 50-200 µg/mL, diclofenac 100 µg/mL
Method: Mizushima and Kobayashi’s technique was employed for the determination of in vitro anti-inflammatory activity by the protein denaturation method for the synthesized compounds. […] Then, a mixture of 500µL of 1% aqueous solution of BSA (bovine albumin serum) and 1.4 mL of phosphate buffer saline (PBS, pH 7.4) was added to 100 µL of varying concentrations of the synthesized compounds 50, 100, and 200 µg/mL. […] The mixtures are then incubated for 15 min at 37 °C and then heated for 10 min at 60 °C. The absorbance was measured at 660nm (SHIMADZU, UV-1800 Spectrophotometer) upon cooling. […] The entire experiment was done in triplicate, and the average was calculated. % inhibition of protein denaturation was calculated by: % inhibition=Absorbance of Control−Absorbance of Sample/Absorbance of Control×100
The anti-inflammatory capacity of the target compound was evaluated using the protein denaturation assay.

T1 sequence (P23219 24-599): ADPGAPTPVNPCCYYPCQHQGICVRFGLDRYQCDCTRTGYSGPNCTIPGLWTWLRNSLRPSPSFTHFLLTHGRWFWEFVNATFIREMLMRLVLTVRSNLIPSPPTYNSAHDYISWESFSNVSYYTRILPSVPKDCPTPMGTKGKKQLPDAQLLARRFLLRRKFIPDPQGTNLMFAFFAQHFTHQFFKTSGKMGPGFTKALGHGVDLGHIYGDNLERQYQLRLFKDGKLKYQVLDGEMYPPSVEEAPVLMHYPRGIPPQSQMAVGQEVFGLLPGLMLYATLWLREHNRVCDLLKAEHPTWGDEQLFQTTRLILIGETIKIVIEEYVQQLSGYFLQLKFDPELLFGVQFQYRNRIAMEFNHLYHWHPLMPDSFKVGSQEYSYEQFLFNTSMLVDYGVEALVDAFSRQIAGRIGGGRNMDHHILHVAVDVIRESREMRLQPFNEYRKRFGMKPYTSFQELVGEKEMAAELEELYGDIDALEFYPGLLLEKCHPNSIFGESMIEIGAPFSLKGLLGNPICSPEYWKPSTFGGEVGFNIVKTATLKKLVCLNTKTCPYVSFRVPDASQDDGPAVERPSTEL
BSA (bovine albumin serum), sequence (P02769 25-607): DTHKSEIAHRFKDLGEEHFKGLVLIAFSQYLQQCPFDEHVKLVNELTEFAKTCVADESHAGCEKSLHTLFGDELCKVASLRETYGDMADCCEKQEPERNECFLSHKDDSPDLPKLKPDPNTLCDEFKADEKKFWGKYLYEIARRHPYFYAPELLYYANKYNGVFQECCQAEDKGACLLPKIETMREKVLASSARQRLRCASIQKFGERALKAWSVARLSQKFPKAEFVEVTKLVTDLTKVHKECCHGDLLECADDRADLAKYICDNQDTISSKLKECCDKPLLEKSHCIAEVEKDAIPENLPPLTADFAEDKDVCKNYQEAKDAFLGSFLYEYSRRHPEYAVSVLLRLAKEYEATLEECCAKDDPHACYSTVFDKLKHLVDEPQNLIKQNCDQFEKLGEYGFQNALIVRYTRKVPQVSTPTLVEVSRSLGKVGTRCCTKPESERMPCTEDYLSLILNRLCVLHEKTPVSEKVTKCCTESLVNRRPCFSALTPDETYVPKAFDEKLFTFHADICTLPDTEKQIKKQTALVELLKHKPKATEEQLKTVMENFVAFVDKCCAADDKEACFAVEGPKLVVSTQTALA

| Compound | % COX-1 Inhibition ([1]; 0.781 μg/ml) | % COX-1 Inhibition ([1]; 1.562 μg/ml) | % COX-1 Inhibition ([1]; 3.125 μg/ml) | % COX-1 Inhibition ([1]; 6.25 μg/ml) | % COX-1 Inhibition ([1]; 12.5 μg/ml) | % COX-1 Inhibition ([1]; 25 μg/ml) | % COX-1 Inhibition ([1]; 50 μg/ml) | % COX-1 Inhibition ([1]; 100 μg/ml) | % COX-1 Inhibition ([1]; 250 μg/ml) | COX-1 IC50 [1] | anti-cancer activity against A549 cell lines (in words) ([2]; A549) | % cell viability ([2]; A549, 6.25 µg/ml) | % cell viability ([2]; A549, 12.5 µg/ml) | % cell viability ([2]; A549, 25 µg/ml) | % cell viability ([2]; A549, 50 µg/ml) | % cell viability ([2]; A549, 100 µg/ml) | concentration at which compound was effective (from % inhibitory values) ([2]; A549 cell lines) | IC50 against A549 ([2]; A549) | % inhibition of albumin denaturation [3] |
| --- | --- | --- | --- | --- | --- | --- | --- | --- | --- | --- | --- | --- | --- | --- | --- | --- | --- | --- | --- |
| NS(=O)(=O)c1ccc(-n2nc(C(=O)NN=Cc3cccc(Oc4ccccc4)c3)cc2-c2ccc(Cl)cc2)cc1 [Compound T3, 4-(5-(4-chlorophenyl)-3-(2-(3-phenoxybenzylidene) hydrazine-1-carbonyl)-1H-pyrazol-1-yl) benzenesulfonamide] | 16.22 ± 0.61% | 24.62 ± 2.13% | 49.90 ± 2.32% | 61.14 ± 3.03% | 73.08 ± 1.76% | 77.09 ± 0.66% | 85.41 ± 0.12% | 87.94 ± 0.94% | 89.26 ± 0.71% | 4.655 µM | active | 95.77% | 86.16% | 60.37% | 46.16% | 24.18% | 50 µg/mL | 40.14 µM | 63.32% |
| Cc1cc(C=NNC(=O)c2cc(-c3ccc(Br)cc3)n(-c3ccc(S(N)(=O)=O)cc3)n2)cc(C)c1OCc1ccccc1 [Compound T5, 4-(3-(2-(4-(benzyloxy)-3,5-dimethylbenzylidene) hydrazine-1-carbonyl)-5-(4-bromophenyl)-1H-pyrazol-1-yl) benzenesulfonamide] | 14.39 ± 2.17% | 21.90 ± 2.60% | 45.47 ± 1.94% | 57.14 ± 2.17% | 72.58 ± 3.09% | 76.66 ± 1.30% | 84.01 ± 1.77% | 88.49 ± 0.36% | 91.75 ± 2.76% | 5.596 µM |  | 97.15% | 92.32% | 72.36% | 62.43% | 30.52% |  | 60.95 µM | 70.87% |
